Measurements from patent US9598415B2, “Compounds as modulators of RORγ” (Boehringer Ingelheim International GmbH, priority 2014, dated 2017).
pIC50: −log10 of the molar value.

Target: RORγ (Homo sapiens (Human), UniProt P51449)
Experiment: Reporter Gene Assay (RGA): inhibition of RORγ transactivation of a luciferase reporter
Type: cell-based
Details: transiently transfected HEK 293 cells (Gal4DBD hRORC LBD), 20-24 h incubation

Chain of RORγ (P51449 269-508): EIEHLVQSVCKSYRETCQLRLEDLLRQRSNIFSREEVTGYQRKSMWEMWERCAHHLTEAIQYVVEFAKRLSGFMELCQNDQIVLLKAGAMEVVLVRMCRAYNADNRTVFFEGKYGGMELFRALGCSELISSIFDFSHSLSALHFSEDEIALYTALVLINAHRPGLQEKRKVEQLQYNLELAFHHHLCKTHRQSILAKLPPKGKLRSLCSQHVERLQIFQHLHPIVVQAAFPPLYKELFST

Row | Compound | pIC50
1 | CCS(=O)(=O)c1ccc(CNc2nc3cnc(-c4c(C)ncnc4C4CC4)nc3n([C@@H]3C[C@H]4CC[C@@H]3C4)c2=O)nc1 [Example 220] | 6.41
2 | CNS(=O)(=O)c1ccc(CNc2nc3cnc(-c4c(C)ncnc4C4CC4)nc3n([C@@H](C)C3CC3)c2=O)cc1 [Example 134] | 6.40
3 | CCS(=O)(=O)c1ccc(CNc2nc3cnc(-c4c(OC)ncnc4C4CC4)nc3n(C(C)C)c2=O)cc1 [Example 143] | 6.87
